Test: UV absorption spectrum in ethanol (UV-A screening power)
Type: physicochemical
Details: UV (EtOH); for E1% / εmax: at λmax

Work on `C=C(C)COc1ccc(C=C(C#N)S(=O)(=O)c2ccccc2)cc1` [2-benzenesulfonyl-3-[4-(2-methylallyloxy)phenyl]acrylonitrile] yielded a λmax of 345 nm and an E1% of 736.
With `C[Si](C)(C)CCCOc1ccc(/C=C(\C#N)S(=O)(=O)c2ccccc2)cc1` [Example 1, 2-benzenesulfonyl-3-[4-(3-trimethylsilanylpropoxy)phenyl]acrylonitrile] the λmax was 347 nm, the E1% was 813 and the εmax was 32 500.
For `CC(COc1ccc(/C=C(\C#N)S(=O)(=O)c2ccccc2)cc1)C[Si](C)(O[Si](C)(C)C)O[Si](C)(C)C` (centres unmarked) [Example 2, [4-[2-methyl-3-[1,3,3,3-tetramethyl-1-[(trimethylsilyl)oxy]disiloxanyl]propyloxy]phenyl]-2-(benzenesulfonyl)acrylonitrile], the λmax was 348 nm, the E1% was 632 and the εmax was 35 500.
